From patent publication US9649313B2, “Use of ITK inhibitors for the treatment of cancer” (The University of North Carolina at Chapel Hill, priority 2012, dated 2017)

Tests used:
56 protein kinases = test: cell-free kinase selectivity panel; type: biochemical; settings: versus 51 of the 56 protein kinases tested
Excerpt: To assess the effect of pharmacologic inhibition of ITK activity in melanoma preclinical models, we used BI 10N, which has been previously shown to inhibit ITK's phosphoryl-transfer activities (Kashem et al., 2007; Riether et al., 2009). We investigated the potency and selectivity of BI 10N against 56 kinases using a cell-free assay (Table 8A).

[1] = system: SKMEL 153 (ITKHI) melanoma cell line; test: single cell motility assay; type: cell-based, Human; settings: 10-25 nM
Description: (§1) FIG. 5A-5C. Effects of BI 10N inhibitor on proliferation and motility of melanoma cells. FIG. 5A) Cell motility assays were performed as described in FIG. 4A-4E; however, the inhibitor BI 10N was added to the media to decrease ITK kinase activity in parental cell lines instead of using the shRNA ITK knockdown cell lines. BI 10N was added to the media 24 hours prior to the start of the motility assay and the VivaView camera system was used to image cellular motility of the melanoma cells as described previously. FIG. 5B) The proliferation assays were completed as described in FIG. 4A-4E, substituting the BI 10N compound for the shRNA. Cells were trypsinized and counted using the Invitrogen Countess. Fifty thousand cells were placed into each well of a 6 well plate and BI 10N was added to the indicated concentrations. The cells were counted with the Invitrogen Countess at 3, 5, and 6 or 7 days after plating to assess the proliferation rates of the different cell lines in the presence of BI 10N. FIG. 5C) Both ITKHI (RPMI 8322) and ITKLO (PMWK) melanoma cell lines were grown in the presence of BI 10N (10-200 nM) in soft agar. In 24-well cell culture plates 2,500 cells per well were added to a 1.4% agarose solution. The agarose and cell solution was then poured on top of a solidified base agar. The cells were incubated at 37° C. for three to four weeks to ensure adequate growth before analysis. FIG. 5D) Cell cycle analysis of PMWK, VMM 39, and RPMI 8322 cells that have been treated with increasing concentrations of BI 10N. Following 3 days of BI 10N treatment, the cells were incubated with EdU for 3 hours and were subsequently assessed for 5-ethynyl-2′-deoxyuridine (EdU) incorporation rate and DNA content with FxCycle Violet. Shown in this panel are the percentages of cells in G0/G1 (low DNA and EdU content), S (high EdU and low-to-medium DNA content), and G2/M (Low EdU and high DNA content)
(§2) Single cell tracking was performed as described (Williams et al., 2012 Circ Res 111(1):56-65). Briefly melanoma cells were plated on 5 μg/cm2 collagen coated MatTek dishes (MatTek Corp., Ashland, Mass. part #P35G-1.5-10-C) and allowed to attach for 24 hours in the presence of either DMSO (1:1000) or BI 10N in DMSO. Cells were monitored for 16 hours using the Olympus VivaView live cell imaging microscope system. Images were taken at a magnification of 10× and were converted to stacks using Image J software. Single-cells were tracked using Image J manual tracking software and velocities were obtained.

[2] = system: A375 (ITKINT) melanoma cell line; test: single cell motility assay; type: cell-based, Human
Description: as §1, §2

[3] = system: SKMEL 131 (ITKLO) melanoma cell line; test: single cell motility assay; type: cell-based, Human
Description: as §1, §2

[4] = system: SKMEL 103 (ITKINT) melanoma cell line; test: single cell motility assay; type: cell-based, Human
Description: as §1, §2

[5] = system: PD-L expression in the melanoma cells; test: PD-L expression in melanoma cells; type: cell-based
Excerpt: In addition, we report a correlation between PD-L and ITK protein expression and also found a significant correlation between activated Akt and PD-L protein levels (data not shown). […] These observations are consistent with PI3K regulating PD-L expression, Akt or Erk activation and ITK protein levels (Davies, 2012; Jiang and Liu 2008 Biochim Biophys Acta 1784, 150-158; Parsa et al., 2007 Nat Med 13, 84-88)

PMWK (ITKLO) cells = test: cell cycle analysis (EdU, FxCycle Violet); type: cell-based, Human; settings: 3 days of treatment
Description: as §1
(§3) Melanoma cells were grown to approximately 60% confluence in T25 tissue culture flasks (Corning Product #430639). […]

RPMI 8322 (ITKHI) cells = test: cell cycle analysis (EdU, FxCycle Violet); type: cell-based, Human; settings: 3 days of treatment, dose-dependent
Description: as §1, §3

VMM 39 (ITKHI) cells = test: cell cycle analysis (EdU, FxCycle Violet); type: cell-based, Human; settings: 3 days of treatment, dose-dependent
Description: as §1, §3

[6] = system: RPMI 8322 (ITKHI) cell line; test: soft agar assay (anchorage independent growth); type: cell-based, Human
Description: as §1
(§4) Soft agar assays were performed employing the RPMI 8322, VMM 39, PMWK, and A375 cell lines. In 24-well cell culture plates (BD Falcon), a 2.0% base agar solution in the appropriate cell line media was poured and allowed to solidify. Tissue culture cells were then trypsinized from their flask, counted using the Countess® Automated Cell Counter, and 2,500 cells per well were added to a 1.4% agarose solution then poured on top of the solidified base agar. Each of the […] layers in the culture plate wells contained BI 10N in the indicated concentrations. The cells were incubated at 37° C. for three to four weeks to ensure adequate growth. 3-(4,5-dimethylthiazol-2-yl)-2,5-diphenyltetrazolium bromide (MTT) was then added in order to perform colony counts using Image J photo processing software.

PMWK (ITKLO) cell line = test: soft agar assay (anchorage independent growth); type: cell-based, Human
Description: as §1, §4

[7] = Riether et al., 2009; cited from earlier work
[8] = Homo sapiens, 672 h, three to four weeks, read-out: amount needed to decrease the number of colonies formed by 50%

For `CC(C)C(C)CNCc1ccc2c(c1)[nH]/c(=N\C(=O)c1ccc(C3=CN=NC3)s1)n2CC(C)(C)O` (centres unmarked) [BI 10N], the “selectivity for ITK over other protein kinases” value (56 protein kinases) was “at least 1000 fold”, the decrease in migration [1] was “about 50%” and the “concentration required for smaller changes in migration” value [2] was no less than 150 nM. The effect on migration ([2]; 10-25 nM) was “unaffected”, the “concentration required for smaller changes in migration” value [3] was no less than 150 nM and the effect on migration ([3]; 10-25 nM) was “do not decrease”. The “concentration required for smaller changes in migration” value [4] was no less than 150 nM, the effect on migration ([4]; 10-25 nM) was “unaffected” and the “expression of PD-L” value [5] was “did not change”. The cell cycle profile (PMWK (ITKLO) cells) was “No cell cycle changes”, the cell cycle profile (RPMI 8322 (ITKHI) cells) was “increased the percentage of cells in the G0/G1 phase and decreased the percentage of cells in the S phase” and the cell cycle profile (VMM 39 (ITKHI) cells) was “increased the percentage of cells in the G0/G1 phase and decreased the percentage of cells in the S phase”. For the same compound, the anchorage-independent growth [6] was “strongly decreased”, the IC50 [6, 8] was 50 nM and the anchorage-independent growth (PMWK (ITKLO) cell line) was “strongly decreased”. For the same compound, the IC50 (PMWK (ITKLO) cell line; [8]) was 25 nM and the “F value (bioavailable in mice)” value [7] was 21%.
